How the values were obtained:
[1] = system: hepatobiliary transit (liver, gall bladder and gastro-intestinal tract); experiment: Visualization of hepatobiliary transit, sequential scintillation camera images after intravenous injection; type: in vivo, rabbit (male New Zealand Albino); conditions: rabbit, >1 mCi (Disofenin: at least 1 mCi)
Experimental: A lyophylized vial of HEPATOLITE™ (New England Nuclear Corporation's brand of Technetium Tc99m Disofenin) is labelled with ^99m Tc-pertechnetate in accordance with manufacturer's directions. At least 1 mCi of the labelled preparation is injected intravenously into a 2.5 Kg male New Zealand Albino rabbit. The rabbit is positioned under a Searle Pho-Gamma scintallation camera in such a way that the liver and gastro-intestinal tract are within the field of view.
Greater than 1 mCi of the ^99m Tc-Thiocyanato-DMPE complex from either Example 1 or 2 is injected into a rabbit as in Example 3.

hepatobiliary transit = conditions: commercially available agent, species not stated; cited from earlier work

Molecule	sequential images of hepatobiliary transit, passage and image quality [1]	time to sequential images of hepatobiliary transit (liver, gall bladder and gastro-intestinal tract) [1]	time to obtain an image of the hepatobiliary transit (hepatobiliary transit) [min]
CC(C)c1cccc(C(C)C)c1NC(=O)CN(CC(=O)O)CC(=O)O.[99Tc] [Disofenin, Technetium Tc99m Disofenin, reference compound]	initial liver uptake with gradual visualization of the gall bladder and gastro-intestinal tract, analogous to the diagnostically efficacious results obtained in clinical studies of normal healthy humans	about 30 minutes	≤ 30
^99m Tc-Thiocyanato - DMPE Complex [Example 2]	rapid passage and comparable image quality of the liver, gall bladder and gastro-intestinal tract	about 10 minutes	

From patent US4526776A, “Cationic cyanato and thiocyanato complexes useful as radiodiagnostic agents” (E. I. du Pont de Nemours & Company, priority 1983, dated 1985)
